This is an account of results in BindingDB's records for doi:10.1074/jbc.M413155200 (Vertex Pharmaceuticals, 2005).

This experiment addresses Serine/threonine-protein kinase pim-1 (Homo sapiens, UniProt P11309). Nature of the experiment: Kinase Assay. The following applies: pH 7.6; 30 °C.

Sequence of Serine/threonine-protein kinase pim-1 (P11309 whole entry): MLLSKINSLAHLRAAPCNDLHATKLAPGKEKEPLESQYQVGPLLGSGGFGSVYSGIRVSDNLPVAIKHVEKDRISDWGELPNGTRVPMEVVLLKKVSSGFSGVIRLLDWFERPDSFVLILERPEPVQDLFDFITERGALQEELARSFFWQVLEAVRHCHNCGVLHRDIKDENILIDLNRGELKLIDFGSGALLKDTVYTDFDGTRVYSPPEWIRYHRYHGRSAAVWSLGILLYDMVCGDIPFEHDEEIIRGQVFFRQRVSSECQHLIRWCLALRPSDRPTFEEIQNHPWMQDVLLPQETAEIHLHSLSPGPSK

Broadly, the IC50 is the concentration that gives 50% inhibition. In turn, `COC(=O)[C@@]1(O)C[C@H]2O[C@]1(C)n1c3ccccc3c3c4c(c5c6ccccc6n2c5c31)C(=O)NC4` returned an IC50 of 0.15 µM.
